Laboratory results: BindingDB's records for doi:10.7270/Q2H130G1 (Burnham Center For Chemical Genomics, 2010)

What follows are molecules tested against T1, Alkaline phosphatase, tissue-nonspecific isozyme (Homo sapiens, UniProt P05186) (assay: TNAP enzyme inhibition by screening hits, dose response, selectivity assay for mouse IAP inhibitor project, biochemical, human TNAP, uHTS hits (AID 488906)).
T1 sequence (P05186 whole entry): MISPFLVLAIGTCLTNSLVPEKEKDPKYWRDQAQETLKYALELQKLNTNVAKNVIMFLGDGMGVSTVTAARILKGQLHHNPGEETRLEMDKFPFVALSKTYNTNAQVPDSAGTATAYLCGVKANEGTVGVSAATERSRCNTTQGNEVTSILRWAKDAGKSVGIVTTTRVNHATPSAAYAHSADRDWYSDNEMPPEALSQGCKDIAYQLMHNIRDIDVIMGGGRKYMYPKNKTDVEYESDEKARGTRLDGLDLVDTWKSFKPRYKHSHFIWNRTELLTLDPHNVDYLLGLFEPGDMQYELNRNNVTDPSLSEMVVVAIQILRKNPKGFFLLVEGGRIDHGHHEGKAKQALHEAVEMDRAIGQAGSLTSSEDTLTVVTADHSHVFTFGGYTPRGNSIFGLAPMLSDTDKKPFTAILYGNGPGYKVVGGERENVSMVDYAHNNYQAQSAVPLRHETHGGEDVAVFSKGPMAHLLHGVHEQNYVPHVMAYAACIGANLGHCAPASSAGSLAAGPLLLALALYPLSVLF

IC50 [µM]	SMILES
0.211	Cc1ccc(Cl)c2c1NC(=O)/C2=C1/NC(=S)NC1=O
20.6	Nc1nnc(CC(=O)N/N=C/C2C=C([N+](=O)[O-])C=C(Br)C2=O)s1 (stereo not given) [2-(5-azanyl-1,3,4-thiadiazol-2-yl)-N'-[(E)-(5-bromanyl-3-nitro-6-oxidanylidene-cyclohexa-2,4-dien-1-ylidene)methyl]ethanehydrazide]
> 100	NS(=O)(=O)c1cc(C(=O)NNC2=c3ccccc3=NC2=O)ccc1Cl [2-chloro-5-[[(2-oxoindol-3-yl)amino]carbamoyl]benzenesulfonamide]
> 100	COc1cc(C=Nn2c(O)csc2=S)ccc1O [3-[[(E)-(3-methoxy-4-oxidanylidene-cyclohexa-2,5-dien-1-ylidene)methyl]amino]-2-sulfanylidene-1,3-thiazolidin-4-one]
58.5	Oc1ccc(C=Nn2c(O)csc2=S)c(O)c1O [3-[[(E)-[2,3-bis(oxidanyl)-4-oxidanylidene-cyclohexa-2,5-dien-1-ylidene]methyl]amino]-2-sulfanylidene-1,3-thiazolidin-4-one]
16.8	CC1NON=C1C(=O)NN=CC1=CC(=O)C(=O)C=C1 (stereo not given) [4-Methyl-furazan-3-carboxylic acid (3,4-dihydroxy-benzylidene)-hydrazide]
> 100	Oc1ccc(CN=Nc2cc(N3CCCC3)nc(N3CCCC3)n2)cc1O [(4Z)-4-[[2-(2,6-dipyrrolidin-1-ylpyrimidin-4-yl)hydrazinyl]methylidene]-2-hydroxycyclohexa-2,5-dien-1-one]
> 100	Cc1ccc(/C=C2\SC(=S)N(/N=C/C3C=C([N+](=O)[O-])C=CC3=O)C2=O)o1 (stereo not given) [(5Z)-5-[(5-methylfuran-2-yl)methylidene]-3-[[(E)-(3-nitro-6-oxocyclohexa-2,4-dien-1-ylidene)methyl]amino]-2-sulfanylidene-1,3-thiazolidin-4-one]
1.04	C#CCOCCOCCOCCNc1nc(N2CCN(C(=O)CCCCCCCCCCNC(=O)[C@H]([C@@H](C)CC)n3cc(CCCCN=C(N)N)nn3)CC2)nc(N2CCN(C(=O)CCCCCCCCCCNC(=O)[C@@H]([C@H](C)O)n3cc(C)nn3)CC2)n1 [GT-RI]
> 100	C#CCOCCOCCOCCNc1nc(N2CCN(C(=O)CCCCCCCCCCNC(=O)Cn3cc(CCCCCN)nn3)CC2)nc(N2CCN(C(=O)CCCCCCCCCCNC(=O)Cn3cc(C[C@@H](C)O)nn3)CC2)n1 [KG-TG]
1.53	O=C1C=CC(C=NNC(=S)Nc2ccccc2[N+](=O)[O-])C=C1O (stereo not given) [MLS000417596]
> 100	C#CCOCCOCCOCCNc1nc(N2CCN(C(=O)CCCCCCCCCCNC(=O)[C@@H](CCSC)n3cc(CCO)nn3)CC2)nc(N2CCN(C(=O)CCCCCCCCCCNC(=O)[C@H]([C@@H](C)CC)n3cc(CCCCCN)nn3)CC2)n1 [MLS002153719]
> 100	O=C(Nn1c(O)csc1=S)C(=O)Nn1c(O)csc1=S [SMR000349781]
1.12	O=C1C=CC(/C=C/c2nc(O)c([N+](=O)[O-])c(=O)[nH]2)C=C1O (stereo not given) [SMR000524347]
> 100	COc1cc(C=CC(=O)CC(=O)C=Cc2ccc(O)cc2)ccc1O [demethoxycurcumin]
